# Test results from patent US20100216779A1 (GLAXOSMITHKLINE LLC, priority 2007, published 2010).
# Experiments:
# Format in all cases: cell-based
# [1] = test system: NCI-H929 (multiple myeloma); experiment: Inhibition of cell proliferation, CellTiter-Glo, NCI-H929; conditions: Homo sapiens, 72 h
# In short: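 Cells were grown in medium with 10% FBS at 37° C, 5% CO2. Cell number was read as CellTiter-Glo luminescence (cellular ATP), with untreated wells as control.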
# COLO205 (colon) = experiment: Inhibition of cell proliferation, CellTiter-Glo, COLO205; conditions: Homo sapiens, COLO 205, 72 h
# In short: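 Exponentially growing COLO205 cells in medium with 10% FBS were plated below 2000 cells/well at 37 °C, 5% CO2. Untreated wells served as controls.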
# [2] = biological target: T1, human IGF-1R (NIH-3T3 cells over expressing human IGF-1R) (Homo sapiens, UniProt P08069); experiment: IGF-1R cellular autophosphorylation (DELFIA); conditions: IGF-1 stimulated
# T1 construct: expressed in transfected cells; host or cells: NIH-3T3 (mouse fibroblasts)
# T1 sequence (P08069 31-1367): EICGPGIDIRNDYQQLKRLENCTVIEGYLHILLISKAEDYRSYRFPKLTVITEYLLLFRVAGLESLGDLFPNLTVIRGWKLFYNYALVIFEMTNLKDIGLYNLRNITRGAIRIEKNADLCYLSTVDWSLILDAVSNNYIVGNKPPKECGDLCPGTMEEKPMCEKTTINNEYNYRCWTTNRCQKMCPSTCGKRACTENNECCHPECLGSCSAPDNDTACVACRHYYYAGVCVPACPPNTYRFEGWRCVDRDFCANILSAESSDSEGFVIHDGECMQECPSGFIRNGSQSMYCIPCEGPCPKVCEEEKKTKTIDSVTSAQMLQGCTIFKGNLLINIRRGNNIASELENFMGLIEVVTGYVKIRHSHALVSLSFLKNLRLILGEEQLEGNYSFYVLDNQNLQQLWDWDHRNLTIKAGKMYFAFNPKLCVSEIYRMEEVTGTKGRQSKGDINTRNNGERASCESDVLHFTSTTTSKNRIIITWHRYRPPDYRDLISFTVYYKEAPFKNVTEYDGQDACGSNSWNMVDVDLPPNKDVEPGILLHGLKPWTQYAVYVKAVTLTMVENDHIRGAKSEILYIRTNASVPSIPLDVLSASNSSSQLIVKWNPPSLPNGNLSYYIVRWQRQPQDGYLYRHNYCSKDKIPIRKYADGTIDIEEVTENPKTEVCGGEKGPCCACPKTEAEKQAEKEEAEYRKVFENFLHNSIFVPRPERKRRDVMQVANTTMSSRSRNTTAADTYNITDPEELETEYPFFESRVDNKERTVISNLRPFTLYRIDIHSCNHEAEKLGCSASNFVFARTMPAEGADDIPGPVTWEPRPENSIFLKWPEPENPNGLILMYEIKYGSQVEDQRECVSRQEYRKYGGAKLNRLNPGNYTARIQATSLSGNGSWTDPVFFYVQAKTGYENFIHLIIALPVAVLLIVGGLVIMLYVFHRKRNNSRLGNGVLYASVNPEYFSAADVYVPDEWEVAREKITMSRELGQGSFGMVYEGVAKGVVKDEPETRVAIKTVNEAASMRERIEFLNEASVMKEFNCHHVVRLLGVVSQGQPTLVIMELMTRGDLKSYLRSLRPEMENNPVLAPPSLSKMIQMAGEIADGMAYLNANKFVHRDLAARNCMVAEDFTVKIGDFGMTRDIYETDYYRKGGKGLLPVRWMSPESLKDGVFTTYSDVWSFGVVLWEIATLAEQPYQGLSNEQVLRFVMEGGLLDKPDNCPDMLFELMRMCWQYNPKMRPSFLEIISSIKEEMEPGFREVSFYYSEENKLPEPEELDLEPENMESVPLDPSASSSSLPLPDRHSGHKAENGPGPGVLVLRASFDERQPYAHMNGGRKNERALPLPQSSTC
# In short: (§1)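 Readout: DELFIA on lysates, with anti-IGF-1R or anti-IR capture and europium anti-pTyr detection, expressed relative to 100% ligand-stimulated signal. Human IGF-1R- or IR-overexpressing NIH-3T3 cells got compound (1.5 nM–30 uM) for 2 h before 15 min IGF-1 (30 ng/mL) or insulin (3 ug/mL).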
# [3] = biological target: T2, IR (NIH-3T3 cells over expressing human IGF-1R or IR) (Homo sapiens, UniProt P06213); experiment: IR cellular autophosphorylation (DELFIA); conditions: NIH-3T3 cells over expressing IR, insulin stimulated
# T2 construct: expressed in transfected cells; host or cells: NIH-3T3 (mouse fibroblasts)
# T2 sequence (P06213 28-1382): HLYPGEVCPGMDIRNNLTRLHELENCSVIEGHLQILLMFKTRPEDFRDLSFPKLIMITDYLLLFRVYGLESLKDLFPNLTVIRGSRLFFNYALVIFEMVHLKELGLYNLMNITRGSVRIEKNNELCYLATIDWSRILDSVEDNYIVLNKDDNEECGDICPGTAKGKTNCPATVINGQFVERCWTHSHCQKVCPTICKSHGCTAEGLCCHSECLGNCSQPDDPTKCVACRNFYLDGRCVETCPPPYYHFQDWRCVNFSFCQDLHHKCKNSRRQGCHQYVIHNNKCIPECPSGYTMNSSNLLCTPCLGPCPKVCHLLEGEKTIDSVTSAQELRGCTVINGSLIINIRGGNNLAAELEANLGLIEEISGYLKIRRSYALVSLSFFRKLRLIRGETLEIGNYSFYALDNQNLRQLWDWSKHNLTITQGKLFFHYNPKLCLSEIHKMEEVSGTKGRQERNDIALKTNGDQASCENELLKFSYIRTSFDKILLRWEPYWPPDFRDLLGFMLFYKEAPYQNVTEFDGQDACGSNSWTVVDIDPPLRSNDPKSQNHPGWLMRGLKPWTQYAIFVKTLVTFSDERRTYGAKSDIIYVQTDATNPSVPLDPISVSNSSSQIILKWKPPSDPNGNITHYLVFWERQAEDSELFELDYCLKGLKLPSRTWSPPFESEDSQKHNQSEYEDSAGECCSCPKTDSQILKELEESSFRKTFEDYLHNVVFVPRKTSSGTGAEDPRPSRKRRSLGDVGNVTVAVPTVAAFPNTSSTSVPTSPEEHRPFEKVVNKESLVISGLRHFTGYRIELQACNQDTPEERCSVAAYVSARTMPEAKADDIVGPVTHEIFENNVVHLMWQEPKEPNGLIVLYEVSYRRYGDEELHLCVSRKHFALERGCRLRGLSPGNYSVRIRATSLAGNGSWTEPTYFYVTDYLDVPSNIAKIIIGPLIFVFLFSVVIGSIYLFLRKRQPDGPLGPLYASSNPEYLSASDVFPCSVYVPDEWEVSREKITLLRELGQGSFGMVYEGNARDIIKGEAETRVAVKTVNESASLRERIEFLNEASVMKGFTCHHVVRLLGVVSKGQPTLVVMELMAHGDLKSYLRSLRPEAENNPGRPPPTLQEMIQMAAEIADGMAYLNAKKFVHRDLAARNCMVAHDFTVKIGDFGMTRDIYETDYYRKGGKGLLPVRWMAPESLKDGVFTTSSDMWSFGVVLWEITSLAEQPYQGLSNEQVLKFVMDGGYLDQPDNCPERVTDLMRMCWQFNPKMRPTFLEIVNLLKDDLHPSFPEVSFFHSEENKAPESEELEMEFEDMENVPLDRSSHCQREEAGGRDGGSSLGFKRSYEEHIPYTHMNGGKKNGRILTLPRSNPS
# In short: as §1
SMILES,IC50 [1],IC50 (COLO205 (colon)),IC50 [2],IC50 [3]
"COc1cc(N2CCC(N3CCN(CCF)CC3)CC2)ccc1Nc1nccc(-c2c(-c3cccc(C(=O)Nc4c(F)cccc4F)c3)nc3cc(C(F)(F)F)ccn23)n1 [Example 189, N-(2,6-difluorophenyl)-3-[3-(2-{[4-{4-[4-(2-fluoroethyl)-1-piperazinyl]-1-piperidinyl}-2-(methyloxy)phenyl]amino}-4-pyrimidinyl)-7-(trifluoromethyl)imidazo[1,2-a]pyridin-2-yl]benzamide]",250 to 1000 nM,> 1000 nM,100 to 500 nM,> 500 nM
"COc1cc(N2CCC(N3CCCCC3)CC2)ccc1Nc1nccc(-c2c(-c3cccc(C(=O)Nc4c(F)cccc4F)c3)nc3c(F)cccn23)n1 [Example 190, 3-[3-(2-{[4-(1,4′-bipiperidin-1-yl)-2-(methyloxy)phenyl]amino}-4-pyrimidinyl)-8-fluoroimidazo[1,2-a]pyridin-2-yl]-N-(2,6-difluorophenyl)benzamide]",250 to 1000 nM,250 to 1000 nM,< 100 nM,100 to 500 nM
"COc1cc(N2CCC(N3CCN(S(C)(=O)=O)CC3)CC2)ccc1Nc1nccc(-c2c(-c3cccc(C(=O)Nc4c(F)cccc4F)c3)nc3c(F)cccn23)n1 [Example 192, N-(2,6-difluorophenyl)-3-(8-fluoro-3-{2-[(2-(methyloxy)-4-{4-[4-(methylsulfonyl)-1-piperazinyl]-1-piperidinyl}phenyl)amino]-4-pyrimidinyl}imidazo[1,2-a]pyridin-2-yl)benzamide]",250 to 1000 nM,250 to 1000 nM,< 100 nM,100 to 500 nM
"COc1cc(N2CCC(N3CCN(CCS(C)(=O)=O)CC3)CC2)ccc1Nc1nccc(-c2c(-c3cccc(C(=O)Nc4c(F)cccc4F)c3)nc3c(F)cccn23)n1 [Example 193, N-(2,6-difluorophenyl)-3-[8-fluoro-3-(2-{[2-(methyloxy)-4-(4-{4-[2-(methylsulfonyl)ethyl]-1-piperazinyl}-1-piperidinyl)phenyl]amino}-4-pyrimidinyl)imidazo[1,2-a]pyridin-2-yl]benzamide]",< 250 nM,> 1000 nM,< 100 nM,100 to 500 nM
"COc1cc(N2CCC(N3CCN(CCF)CC3)CC2)ccc1Nc1nccc(-c2c(-c3cccc(C(=O)Nc4c(F)cccc4F)c3)nc3cc(F)ccn23)n1 [Example 194, N-(2,6-difluorophenyl)-3-[7-fluoro-3-(2-{[4-{4-[4-(2-fluoroethyl)-1-piperazinyl]-1-piperidinyl}-2-(methyloxy)phenyl]amino]-4-pyrimidinyl)imidazo[1,2-a]pyridin-2-yl]benzamide]",250 to 1000 nM,250 to 1000 nM,< 100 nM,100 to 500 nM
"COc1cc(N2CCC(N3CCCCC3)CC2)ccc1Nc1nccc(-c2c(-c3cccc(C(=O)Nc4c(F)cccc4F)c3)nc3cc(F)ccn23)n1 [Example 195, 3-[3-(2-{[4-(1,4′-bipiperidin-1′-yl)-2-(methyloxy)phenyl]amino}-4-pyrimidinyl)-7-fluoroimidazo[1,2-a]pyridin-2-yl]-N-(2,6-difluorophenyl)benzamide]",250 to 1000 nM,250 to 1000 nM,< 100 nM,< 100 nM
"COc1cc(N2CCC(N3CCN(S(C)(=O)=O)CC3)CC2)ccc1Nc1nccc(-c2c(-c3cccc(C(=O)Nc4c(F)cccc4F)c3)nc3cc(F)ccn23)n1 [Example 196, N-(2,6-difluorophenyl)-3-(7-fluoro-3-{2-[(2-(methyloxy)-4-{4-[4-(methylsulfonyl)-1-piperazinyl]-1-piperidinyl}phenyl)amino]-4-pyrimidinyl}imidazo[1,2-a]pyridin-2-yl)benzamide]",< 250 nM,250 to 1000 nM,< 100 nM,< 100 nM
